One assay concerns Pyricularia orzae. The experiment in a line: whole plant or invertebrate. In kind it is in vivo, Pyricularia orzae (rice plant, Chukyo Asahi). As to conditions: in Oryza sativa, 120 h, read-out: Protective value.
The test system of another assay is Rhizoctonia solani. The experiment in a line: whole plant or invertebrate. In kind it is in vivo, Rhizoctonia solani (rice plant, Chukyo Asahi). The conditions noted are these: in Oryza sativa, 120 h, read-out: Preventive value.
The next assay has as its system Plutella xylostella. Nature of the assay: Test 11: mortality of larvae of Plutella xylostella on treated cabbage leaf. In kind it is in vivo. The conditions noted are these: foliar, 192 h, leaf dipped, emulsifiable concentrate Composition No. 3, eight days, read-out: Percent mortality. From the text:
Each emulsifiable concentrate of each active ingredient as Composition No. 3 was dispersed in water at a concentration of 800 ppm. Each leaf of cabbage was dipped into each emulsion for about 10 seconds and taken up and dried in air.
A wet filter paper was put in each Petri dish (diameter of 9 cm), and each treated leaf was put on the filter paper. Larvae of Plutella xylostella at 2nd to 3rd instar were charged and the dish was covered with a cap and kept in a constant temperature chamber with lighting at 28° C. Eight days after the charge, mortality was measured and each percent mortality was calculated.

In a further assay the test system is Botrytis cinerea. Nature of the assay: Test 9: protective value on cucumber inoculated with Botrytis cinerea. In kind it is in vivo, Botrytis cinerea (cucumber plant, Suyo). As to conditions: 72 h, 250 ppm, 10 ml sprayed, lesion length three days after inoculation. How it is done: In each unglazed pot having a diameter of 9 cm, cucumber plant (Suyo) was cultured. At one leaf stage, 10 ml. of each solution of each active ingredient having a concentration of 250 ppm was sprayed by a spray gun. After maintaining the pot in a green-house at 24° to 25° C. for one day, a disc (punched agar disc) obtained by culturing Botrytis cinerea on a potato-glucose-agar medium (PDA medium) was put on the leaf of cucumber to inoculate them. Three days after the inoculation, lengths of lesions were measured and each protective value was calculated as Test 2.
In accordance with the test, except the concentration of the active ingredient was decreased, the comparative tests of Compound No. 7 and Reference compound were carried out.

The test system of a further assay is Tetranychus telarius (L). Nature of the assay: Test 6: mortality of larvae and adults of Tetranychus telarius on kidney bean leaf. In kind it is in vivo. As to conditions: foliar, 72 h, leaf dipped, wettable powder of Composition No. 5, three days after treatment, read-out: Percent mortality. How it is done:
Young seedling of kidney bean treated to cut off leaves except one primordial leaf was transplanted in a cup and about 30 of larvae and adults of Tetranychus telarius (L) were inoculated on the primordial leaf. This was dipped for 10 seconds in each solution obtained by diluting each wettable powder of Composition No. 5 containing each active ingredient with water at the concentration of 800 ppm and was dried in air and was kept in a constant temperature chamber with lighting at 28° C. Three days after the treatment, mortality was measured and each percent mortality was calculated as follows. [formula]

Consider 33 compounds from patent US4331670A (priority 1979, dated 1982).

With `Cc1cc(Nc2c([N+](=O)[O-])cc([N+](=O)[O-])cc2C(F)(F)F)ncc1Br` [compound 87], the pest or weed control at 50 ppm with Pyricularia orzae came to 100%. Besides, the pest or weed control at 100 ppm in the assay on Rhizoctonia solani is 100%. In addition, the mortality at 800 ppm in the assay on Plutella xylostella came out at 100%.

For `O=[N+]([O-])c1cc(C(F)(F)F)c(Cl)c([N+](=O)[O-])c1Nc1ccc(C(F)(F)F)cn1` [compound 19], the pest or weed control at 100 ppm in the assay on Pyricularia orzae and with Rhizoctonia solani was 100% each time. Also, in the assay with Botrytis cinerea, the pest or weed control at 250 ppm amounted to 100%.

As for `O=[N+]([O-])c1cc(C(F)(F)F)cc(C(F)(F)F)c1Nc1ncc(C(F)(F)F)cc1Cl` [compound 89], the mortality at 800 ppm in the assay on Tetranychus telarius (L) stood at 100%.

Turning to `O=[N+]([O-])c1cc(C(F)(F)F)c(Oc2cccc(O)c2)c([N+](=O)[O-])c1Nc1ncc(C(F)(F)F)cc1Cl` [compound 50], in the assay with Rhizoctonia solani, the pest or weed control at 100 ppm came to 100%. The pest or weed control at 250 ppm in the assay on Botrytis cinerea stood at 100%.

Turning to `O=[N+]([O-])c1cc(C(F)(F)F)c(Cl)c([N+](=O)[O-])c1Nc1ncc(Br)cc1Br` [compound 17], the pest or weed control at 100 ppm with Pyricularia orzae worked out at 100%. In the assay on Botrytis cinerea, the pest or weed control at 250 ppm turned out to be 92%.

Take `O=[N+]([O-])c1cc([N+](=O)[O-])c(Nc2ccc(C(F)(F)F)cn2)c(C(F)(F)F)c1` [compound 57]: in the assay with Plutella xylostella, the mortality at 800 ppm is 100%.

`O=[N+]([O-])c1cc(C(F)(F)F)c(Oc2ccccc2O)c([N+](=O)[O-])c1Nc1ncc(C(F)(F)F)cc1Cl` [compound 48]: in the assay on Rhizoctonia solani, the pest or weed control at 100 ppm is 100%. Moreover, in the assay on Botrytis cinerea, the pest or weed control at 250 ppm was found to be 100%.

As for `O=[N+]([O-])c1cc([N+](=O)[O-])c(Nc2ncc(Cl)cc2C(F)(F)F)c(C(F)(F)F)c1` [compound 83], in the assay on Pyricularia orzae, the pest or weed control at 50 ppm came out at 100%. The mortality at 800 ppm with Plutella xylostella stood at 100%.

Take `O=[N+]([O-])c1cc(C(F)(F)F)c(Cl)c([N+](=O)[O-])c1Nc1ncccc1C(F)(F)F` [compound 36]: the results for the pest or weed control at 100 ppm in the assay with Pyricularia orzae and in the assay with Rhizoctonia solani were 100% and 92%, respectively. The compound further registered a pest or weed control at 250 ppm with Botrytis cinerea of 96%.

Regarding `CCCCOc1c(C(F)(F)F)cc([N+](=O)[O-])c(Nc2ncc(C(F)(F)F)cc2Cl)c1[N+](=O)[O-]` [compound 43], the pest or weed control at 100 ppm in the assay on Pyricularia orzae and with Rhizoctonia solani was 95% each time. Also, the mortality at 800 ppm in the assay on Plutella xylostella turned out to be 100%.

Regarding `O=[N+]([O-])c1cc([N+](=O)[O-])c(Nc2ccncc2)c(C(F)(F)F)c1` [compound 59], the mortality at 800 ppm in the assay with Plutella xylostella came to 100%.

For the compound `O=[N+]([O-])c1cc(C(F)(F)F)cc([N+](=O)[O-])c1Nc1ncc(Cl)cc1C(F)(F)F` [compound 27], the pest or weed control at 100 ppm in the assay with Pyricularia orzae was 100%. Moreover, in the assay with Tetranychus telarius (L), the mortality at 800 ppm came out at 100%.

Consider `Cc1nc(Nc2c([N+](=O)[O-])cc([N+](=O)[O-])cc2C(F)(F)F)c(Cl)cc1Cl` [compound 68], for which, in the assay with Pyricularia orzae, the pest or weed control at 50 ppm came to 100%. For the same compound, the pest or weed control at 100 ppm in the assay on Rhizoctonia solani came out at 100%. Further, the mortality at 800 ppm with Plutella xylostella was found to be 100%.

As to `O=[N+]([O-])c1cc(C(F)(F)F)cc(C(F)(F)F)c1Nc1ncc(Cl)cc1Cl` [compound 90], the mortality at 800 ppm with Tetranychus telarius (L) amounted to 100%.

Consider `O=[N+]([O-])c1cc([N+](=O)[O-])c(Nc2ccc(I)cn2)c(C(F)(F)F)c1` [compound 53], for which the mortality at 800 ppm in the assay on Plutella xylostella turned out to be 100%.

As to `O=[N+]([O-])c1cc([N+](=O)[O-])c(Nc2cccnc2Cl)c(C(F)(F)F)c1` [compound 55], in the assay with Plutella xylostella, the mortality at 800 ppm turned out to be 100%.

For the compound `CC(C)Oc1c(C(F)(F)F)cc([N+](=O)[O-])c(Nc2ncc(C(F)(F)F)cc2Cl)c1[N+](=O)[O-]` [compound 42], the pest or weed control at 100 ppm in the assay on Pyricularia orzae and in the assay with Rhizoctonia solani was 95% each time. Also, the mortality at 800 ppm with Plutella xylostella worked out at 100%.

For the compound `O=[N+]([O-])c1cc(C(F)(F)F)c(Cl)c([N+](=O)[O-])c1Nc1ncc(Cl)cc1Br` [compound 18], the pest or weed control at 100 ppm in the assay with Pyricularia orzae and in the assay on Rhizoctonia solani was 100% throughout. The compound also showed a pest or weed control at 250 ppm in the assay with Botrytis cinerea of 100%.

On to `CCc1nc(Nc2c([N+](=O)[O-])cc([N+](=O)[O-])cc2C(F)(F)F)ccc1I` [compound 67], for which the pest or weed control at 50 ppm with Pyricularia orzae worked out at 100%. Besides, the mortality at 800 ppm in the assay with Plutella xylostella is 100%.

For `O=[N+]([O-])c1cc([N+](=O)[O-])c(Nc2nc(Cl)ccc2C(F)(F)F)c(C(F)(F)F)c1` [compound 76], the pest or weed control at 50 ppm with Pyricularia orzae was 100%. Moreover, the pest or weed control at 100 ppm in the assay on Rhizoctonia solani is 100%.

`O=[N+]([O-])c1cc([N+](=O)[O-])c(Nc2ccc(Cl)nc2Cl)c(C(F)(F)F)c1` [compound 75]: the pest or weed control at 50 ppm in the assay with Pyricularia orzae worked out at 100%. The pest or weed control at 100 ppm with Rhizoctonia solani stood at 100%.

Regarding `Cc1cnc(Nc2c([N+](=O)[O-])cc([N+](=O)[O-])cc2C(F)(F)F)c(Br)c1` [compound 64], the pest or weed control at 50 ppm with Pyricularia orzae was determined as 100%. Further, the pest or weed control at 100 ppm in the assay with Rhizoctonia solani turned out to be 100%. For the same compound, the mortality at 800 ppm with Plutella xylostella is 100%.

With `COc1c([N+](=O)[O-])cc(C(F)(F)F)c(Nc2ncc(Cl)cc2Cl)c1[N+](=O)[O-]` [compound 86], the pest or weed control at 50 ppm in the assay with Pyricularia orzae is 100%. Moreover, the pest or weed control at 100 ppm with Rhizoctonia solani amounted to 100%.

As to `Cc1c(Cl)cnc(Nc2c([N+](=O)[O-])cc([N+](=O)[O-])cc2C(F)(F)F)c1Cl` [compound 78], in the assay on Pyricularia orzae, the pest or weed control at 50 ppm is 100%. Moreover, the pest or weed control at 100 ppm in the assay on Rhizoctonia solani worked out at 100%.

Consider `COc1c(C(F)(F)F)cc([N+](=O)[O-])c(Nc2ncc(C(F)(F)F)cc2Cl)c1[N+](=O)[O-]` [compound 39], for which the pest or weed control at 100 ppm in the assay on Pyricularia orzae and with Rhizoctonia solani was 100% each time. Moreover, the mortality at 800 ppm in the assay with Tetranychus telarius (L) was 100%.

`CC(C)COc1c(C(F)(F)F)cc([N+](=O)[O-])c(Nc2ncc(C(F)(F)F)cc2Cl)c1[N+](=O)[O-]` [compound 44]: the pest or weed control at 100 ppm in the assay with Pyricularia orzae and with Rhizoctonia solani was 95% in each case.

Consider `O=[N+]([O-])c1cc(C(F)(F)F)cc([N+](=O)[O-])c1Nc1ncc(Br)cc1C(F)(F)F` [compound 28], for which the pest or weed control at 100 ppm in the assay on Pyricularia orzae was 100%. The mortality at 800 ppm with Tetranychus telarius (L) stood at 100%.

Take `CCc1nc(Nc2c([N+](=O)[O-])cc(C(F)(F)F)c(Cl)c2[N+](=O)[O-])ccc1Br` [compound 23]: the pest or weed control at 100 ppm in the assay with Pyricularia orzae worked out at 93%. Besides, the pest or weed control at 250 ppm in the assay on Botrytis cinerea stood at 81%.

`O=[N+]([O-])c1cc(C(F)(F)F)c(Cl)c([N+](=O)[O-])c1Nc1ncc(Br)cc1C(F)(F)F` [compound 30]: the values for the pest or weed control at 100 ppm with Pyricularia orzae and with Rhizoctonia solani were 100% and 95%, respectively. In addition, the pest or weed control at 250 ppm in the assay with Botrytis cinerea worked out at 100%.

Take `O=[N+]([O-])c1cc(C(F)(F)F)c(Cl)c([N+](=O)[O-])c1Nc1nc(Cl)c(C(F)(F)F)cc1Cl` [compound 35]: the pest or weed control at 100 ppm with Pyricularia orzae was found to be 95%; with Rhizoctonia solani it was 100%. The compound further returned a pest or weed control at 250 ppm in the assay on Botrytis cinerea of 100%.

For the compound `O=[N+]([O-])c1cc([N+](=O)[O-])c(Nc2cccnc2)c(C(F)(F)F)c1` [compound 58], in the assay on Plutella xylostella, the mortality at 800 ppm was found to be 100%.

As to `COc1ccc(Nc2c([N+](=O)[O-])cc([N+](=O)[O-])cc2C(F)(F)F)nc1` [compound 74, N-(5-methoxy-2-pyridyl)-2,4-dinitro-6-trifluoromethylaniline], the pest or weed control at 100 ppm in the assay with Rhizoctonia solani was 93%. In the assay with Plutella xylostella, the mortality at 800 ppm was 100%.

`Cc1ccnc(Nc2c([N+](=O)[O-])cc([N+](=O)[O-])cc2C(F)(F)F)c1` [compound 56]: the mortality at 800 ppm in the assay with Plutella xylostella is 100%.
